# Test results taken from patent US20260374818A1, “CATIONIC PEPTIDES WITH BROAD SPECTRUM ACTIVITY” (priority 2023, published 2026).
# Where a SMILES comes first, the peptide text is derived from it. [ ]: non-standard residue; d: D form.
# Assays:
# [1] = tested on: P. aeruginosa PAO1 biofilms; settings: for Biofilm growth inhibition: P. aeruginosa PAO1 (FIG. 20D); for minimum inhibitory concentration of peptide that inhibited at least 90% of biofilm growth (MBIC90): P. aeruginosa PAO1 biofilms, >95% pure peptides, crystal violet, BM2 minimal media; for More active than AB103-D against PAO1 biofilms: PAO1, >95% pure peptides
# [2] = tested on: P. aeruginosa PAO1 biofilms; assay: Biofilm inhibition by SPOT-synthesized AB103-D variants (crystal violet), P. aeruginosa; assay type: cell-based, Pseudomonas aeruginosa; settings: P. aeruginosa PAO1, SPOT peptides
# [3] = tested on: peripheral blood mononuclear cells (PBMCs); assay: Cytotoxicity (LDH release), PBMCs
# red blood cells = assay: Hemolysis; assay type: cell-based, human; settings: 4 hours
# Protocol: Hemolysis: Peptide induced hemolysis was evaluated according to methods described previously [Hilchie, A. L., et al. (2016). Mastoparan is a membranolytic anti-cancer peptide that works synergistically with gemcitabine in a mouse model of mammary carcinoma. Biochimica Et Biophysica Acta, 1858(12), 3195-3204]. Briefly, red blood cells were obtained, with human ethics approval, from the blood of healthy volunteers collected in a sodium heparin tube and then rinsed three times in PBS, centrifuging between washes, to obtain the hematocrit (100% RBC). A 2.5% RBCs suspension was exposed to peptide at varying concentrations and incubated at 37 C in a 5% CO2 humidified atmosphere for 4 hours. Supernatants were collected following centrifugation (1100 rpm) and transferred to a flat bottom microtitre plate. The absorbance (490 nm) of each supernatant was measured on a BioTek Epoch Microplate Spectrophotometer. Percent hemolysis was calculated by comparing the absorbance arising from peptide treated cells to RBCs treated with […] (0% hemolysis) or lysed with 1% Triton X-100 (100% hemolysis).
# [4] = tested on: P. aeruginosa PAO1 planktonic cells; assay: Planktonic growth inhibition by pure AB103-D derivatives, P. aeruginosa; assay type: cell-based, Pseudomonas aeruginosa
# Protocol: (§1) The effect of peptide on bacterial and biofilm growth was assessed using the biofilm inhibition assay [Haney, E. F., Trimble, M. J., & Hancock, R. E. W. (2021) FIGS. 20A-20D. Microtiter plate assays to assess antibiofilm activity against bacteria. Nature Protocols, 16(5), 2615-2632]. The effect of peptide on planktonic growth and biofilm growth of MRSA USA300 (FIG. 20A, FIG. 20C) and P. aeruginosa PAO1 (FIGS. 20B, 20D) was assessed and compared to the activity seen for AB103-D (gray stars) and DJK5 (gray open circles). Data shown are the average of three biological replicates. Error bars have been omitted for clarity. […]. The results indicated enhanced antibiofilm and antibacterial activity of AB103-D derivatives compared to DJK5.
# [5] = Peptide aggregation in RPMI + 10% FBS with PBMCs (microscopy); assay type: physicochemical; settings: overnight
# Protocol: Peptide Aggregation: Peptide aggregation was assessed qualitatively by examining samples of peptides mixed with PBMCs following overnight incubation at 37 °C and 5% CO2. All samples were prepared in RPMI media containing 10% FBS the same manner as the cytotoxicity assays described above. Visualization of aggregates was done using a Nikon Eclipse TS100 Inverted Microscope at 10× magnification.
# In aggregation studies, peptides were added to PBMCs in RPMI media containing 10% FBS and incubated overnight at 37 °C in 5% CO2.
# The peptides were also evaluated for their tendency to aggregate when added to RPMI tissue culture media containing 10% fetal bovine serum in the presence of PBMCs. Peptides were added to PBMCs in RPMI media containing 10% FBS and incubated overnight at 37 °C in 5% CO2. […] Compared to a highly aggregation prone peptide, 1018 [Haney, E. F., et al. (2017). Aggregation and its influence on the immunomodulatory activity of synthetic innate defense regulator peptides.
# As with the DJK-5 derivatives above, the AB103-D derivatives were evaluated for their tendency to aggregate when added to RPMI tissue culture media containing 10% fetal bovine serum in the presence of PBMCs. Peptides were added to PBMCs in RPMI media containing 10% FBS and incubated overnight at 37 °C in 5% CO2.
# MRSA USA300 biofilms = assay: Biofilm inhibition by >95% pure peptides (crystal violet), MRSA; assay type: cell-based, methicillin resistant Staphylococcus aureus; settings: MRSA USA300 biofilms, >95% pure peptides, 10% TSB + 0.1% glucose
# MRSA USA 300 = assay: MIC (broth microdilution) of peptides, MRSA; assay type: cell-based, methicillin resistant Staphylococcus aureus; settings: MRSA USA300; mode of three biological replicates
# Protocol: (§2) Minimal inhibitory concentration (MIC) against planktonic bacteria: The MIC of the synthetic peptides was determined in Mueller-Hinton broth (MHB) using the broth microdilution method described previously [Wiegand, I., Hilpert, K., & Hancock, R. E. (2008). Agar and broth dilution methods to determine the minimal inhibitory concentration (MIC) of antimicrobial substances. Nature Protocols, 3(2), 163-175]. Briefly, 10 μl of a 10× concentrated peptide solution was placed in the bottom of a well in a 96-well polypropylene round bottom plate (Corning Inc.). A bacterial suspension of ~5×10^5 CFU/ml was prepared from an overnight culture and 90 μl of this was added to each well. […] Bacteria tested included P. aeruginosa PAO1, MRSA USA300 LAC, Staphylococcus haemolyticus, Staphylococcus epidermidis, Klebsiella pneumoniae and Streptococcus salivarius.
# (§3) Finally, the AB103-D derivatives that were the least aggregation prone and which produced the lowest toxic effects in vivo were evaluated for their direct antibacterial activity towards several pathogens of clinical relevance using a standard minimum inhibitory concentration (MIC) assay [Wiegand, I., Hilpert, K., & Hancock, R. E. (2008). Agar and broth dilution methods to determine the minimal inhibitory concentration (MIC) of antimicrobial substances. Nature Protocols, 3(2), 163-175]. Specifically, peptides AB110-D, AB111-D, AB114-D and AB115-D were tested against P. aeruginosa PAO1, MRSA USA 300, Staphylococcus haemolyticus, Staphylococcus epidermidis, Klebsiella pneumoniae and Streptococcus salivarius and compared against the antibacterial activity of DJK-5 and AB103-D (Table 7). Overall, the antibacterial potency of all of the AB103-D derivatives was stronger than that seen for DJK-5, particularly in the case of the Gram-negative pathogens P. aeruginosa and K. pneumoniae. […]
# [6] = tested on: Staphylococcus haemolyticus; assay: MIC (broth microdilution) of peptides, S. haemolyticus; assay type: cell-based; settings: mode of three biological replicates
# Protocol: as §2, §3
# Streptococcus salivarius = assay: MIC (broth microdilution) of peptides, S. salivarius; assay type: cell-based; settings: mode of three biological replicates
# Protocol: as §2, §3
# P. aeruginosa PAO1 = assay: MIC (broth microdilution) of peptides, P. aeruginosa; assay type: cell-based, Pseudomonas aeruginosa; settings: mode of three biological replicates
# Protocol: as §2, §3
# [7] = tested on: Staphylococcus epidermidis; assay: MIC (broth microdilution) of peptides, S. epidermidis; assay type: cell-based; settings: mode of three biological replicates
# Protocol: as §2, §3
# Klebsiella pneumoniae = assay: MIC (broth microdilution) of peptides, K. pneumoniae; assay type: cell-based; settings: mode of three biological replicates
# Protocol: as §2, §3
# [8] = tested on: MRSA USA300 planktonic cells; assay: Planktonic growth inhibition by pure AB103-D derivatives, MRSA; assay type: cell-based, methicillin resistant Staphylococcus aureus
# Protocol: as §1
# [9] = Subdermal murine toxicity model; settings: for Clinical score: 1 hour after subcutaneous administration, comparator DJK-5; for Average cyst size compared to DJK-5: 16 hours after administration, 4 mg/kg
# Protocol: FIGS. 14A-14B show murine subdermal toxicity assessment of AB103-D derived peptides. Clinical scores were recorded for each peptide treated mouse one hour after peptide administration (FIG. 14A). […] The presence of a cyst or lesion was recorded 16 hours after peptide administration and the size of the cyst was measured using calipers (FIG. 14B). Data shown are the mean of two independent replicates at a peptide dose of 4 mg/kg.
# Subdermal murine toxicity model: A subdermal toxicity mouse model was used to evaluate whether peptides induced localized toxicity of treated cutaneous tissue. Mice were anesthetized with 2.5-3% isoflurane and their fur was removed by shaving followed by application of a chemical depilatory. […] Mice were visually assessed and received clinical scores for a battery of signs or symptoms (activity/behaviour change, appearance/grooming, hydration, pain, cyst formation), for which a score of zero was given to animals that appeared normal. Animals were weighed and clinical scores were totalled. Following an overnight (16 h) incubation, mice were scored and weighed then euthanized with CO2 followed by cervical dislocation. Mice were imaged and cysts (swollen, inflamed tissue) were measured using a caliper. Animal experiments were performed in accordance with the Canadian Council on Animal Care (CCAC) guidelines and were approved by the University of British Columbia Animal Care Committee. Female CD-1 mice were purchased from Charles River Laboratories, Inc. (Wilmington, MA). All mice were 8 weeks of age and weighed 25±5 g at the time of the experiment. Animals were group housed in cohorts of three to four littermates. Standard animal husbandry practices were employed.
# [10] = tested on: MRSA biofilms (USA300 LAC); settings: MRSA biofilms, SPOT peptides
# [11] = 200 μg/ml or highest concentration
SMILES,Biofilm growth inhibition [1],minimum inhibitory concentration of peptide that inhibited at least 90% of biofilm growth (MBIC90) [1],More active than AB103-D against PAO1 biofilms [1],Activity against PAO1 biofilms compared to AB103-D [2],Cytotoxicity (LDH) [3],Hemolysis (red blood cells),Planktonic growth inhibition [4],Peptide aggregation ([5]; 50 μg/ml),"Peptide aggregation [5, 11]",minimum inhibitory concentration of peptide that inhibited at least 90% of biofilm growth (MBIC90) (MRSA USA300 biofilms),MIC (MRSA USA 300),MIC [6],MIC (Streptococcus salivarius),MIC (P. aeruginosa PAO1),MIC [7],MIC (Klebsiella pneumoniae),Planktonic growth inhibition [8],Clinical score [9],Average cyst size compared to DJK-5 [9],Better activity vs. MRSA cf. AB103-D [10]
"CC[C@@H](C)[C@@H](NC(=O)[C@@H](C)NC(=O)[C@@H](CCCNC(=N)N)NC(=O)[C@@H](Cc1c[nH]c2ccccc12)NC(=O)[C@@H](CCC(N)=O)NC(=O)[C@H](NC(=O)[C@@H](CCCNC(=N)N)NC(=O)[C@H](NC(=O)[C@H](NC(=O)[C@@H](Cc1c[nH]c2ccccc12)NC(=O)[C@H](NC(=O)[C@H](N)CCCNC(=N)N)C(C)C)C(C)C)[C@H](C)CC)C(C)C)C(N)=O [AB109-D, rvwvirvqwrai] (H-[dR][dV][dW][dV][dI][dR][dV][dQ][dW][dR][dA][dI]-NH2)",among the most active,2 µM,up to 4 fold,activity superior to that of AB103-D,most toxic towards PBMCs at the highest peptide concentration evaluated of 200 μg/ml,substantial hemolysis at concentrations higher than 25 μg/ml,among the most active,peptide aggregation was again observed,strongly aggregated,1 µM,–,–,–,–,–,–,–,–,–,–
"CC[C@@H](C)[C@@H](NC(=O)[C@@H](C)NC(=O)[C@@H](CCCNC(=N)N)NC(=O)[C@@H](Cc1c[nH]c2ccccc12)NC(=O)[C@@H](CCC(N)=O)NC(=O)[C@H](NC(=O)[C@@H](CCCNC(=N)N)NC(=O)[C@@H](Cc1c[nH]c2ccccc12)NC(=O)[C@H](NC(=O)[C@@H](CCCNC(=N)N)NC(=O)[C@H](NC(=O)[C@H](N)CCCNC(=N)N)C(C)C)C(C)C)C(C)C)C(N)=O [AB111-D, rvrvwrvqwrai] (H-[dR][dV][dR][dV][dW][dR][dV][dQ][dW][dR][dA][dI]-NH2)",–,4 µM,–,activity superior to that of AB103-D,–,–,–,–,–,0.5 µM,0.8 µg/mL,0.8 µg/mL,0.8 µg/mL,2 µg/mL,0.8 µg/mL,0.8 µg/mL,among the most active against planktonic cells,< 2,smaller than those induced by DJK-5,–
"CC[C@@H](C)[C@@H](NC(=O)[C@H](NC(=O)[C@@H](CCCNC(=N)N)NC(=O)[C@@H](Cc1c[nH]c2ccccc12)NC(=O)[C@@H](CCC(N)=O)NC(=O)[C@H](NC(=O)[C@@H](CCCNC(=N)N)NC(=O)[C@H](NC(=O)[C@H](NC(=O)[C@@H](CCCNC(=N)N)NC(=O)[C@H](NC(=O)[C@H](N)CCCNC(=N)N)C(C)C)C(C)C)[C@H](C)CC)C(C)C)[C@H](C)CC)C(N)=O [AB112-D, rvrvirvqwrii] (H-[dR][dV][dR][dV][dI][dR][dV][dQ][dW][dR][dI][dI]-NH2)",among the most active,2 µM,up to 4 fold,activity superior to that of AB103-D,–,–,among the most active,peptide aggregation was again observed,strongly aggregated,1 µM,–,–,–,–,–,–,–,–,–,–
"CC[C@@H](C)[C@@H](NC(=O)[C@@H](C)NC(=O)[C@@H](CCCNC(=N)N)NC(=O)[C@@H](Cc1c[nH]c2ccccc12)NC(=O)[C@@H](CCCCN)NC(=O)[C@H](NC(=O)[C@@H](CCCNC(=N)N)NC(=O)[C@H](NC(=O)[C@H](NC(=O)[C@@H](CCCNC(=N)N)NC(=O)[C@H](NC(=O)[C@H](N)CCCNC(=N)N)C(C)C)C(C)C)[C@H](C)CC)C(C)C)C(N)=O [AB114-D, rvrvirvkwrai] (H-[dR][dV][dR][dV][dI][dR][dV][dK][dW][dR][dA][dI]-NH2)",–,8 µM,–,–,–,–,–,–,–,0.5 µM,0.8 µg/mL,0.8 µg/mL,0.8 µg/mL,2 µg/mL,0.4 µg/mL,0.8 µg/mL,among the most active against planktonic cells,< 2,smaller than those induced by DJK-5,~2 fold
